From patent publication US11873298B2, “Compounds and uses thereof” (JANSSEN PHARMACEUTICA NV, priority 2017, dated 2024)
Where “and” joins values, the source holds several entries; their conditions need not be identical. Equal values may be shown once.

Key:
Ole1 = target: T1, Ole1 (Saccharomyces cerevisiae, UniProt P21147); experiment: Growth inhibition of yeast strain expressing Ole1 as sole desaturase; type: cell-based; details: for IC50 / OLE1 % Max Inhibition: yeast strain expressing Ole1 as sole desaturase; for growth of yeast expressing OLE1 in presence of inhibitor: FIG. 6
T1 construct: expressed in transfected cells; host or cells: S. cerevisiae ole1Δ strain (W303 pdr1Δ pdr3Δ background), plasmid pRS316 with TDH3 promoter and CYC1 terminator
T1 sequence (P21147 1-510): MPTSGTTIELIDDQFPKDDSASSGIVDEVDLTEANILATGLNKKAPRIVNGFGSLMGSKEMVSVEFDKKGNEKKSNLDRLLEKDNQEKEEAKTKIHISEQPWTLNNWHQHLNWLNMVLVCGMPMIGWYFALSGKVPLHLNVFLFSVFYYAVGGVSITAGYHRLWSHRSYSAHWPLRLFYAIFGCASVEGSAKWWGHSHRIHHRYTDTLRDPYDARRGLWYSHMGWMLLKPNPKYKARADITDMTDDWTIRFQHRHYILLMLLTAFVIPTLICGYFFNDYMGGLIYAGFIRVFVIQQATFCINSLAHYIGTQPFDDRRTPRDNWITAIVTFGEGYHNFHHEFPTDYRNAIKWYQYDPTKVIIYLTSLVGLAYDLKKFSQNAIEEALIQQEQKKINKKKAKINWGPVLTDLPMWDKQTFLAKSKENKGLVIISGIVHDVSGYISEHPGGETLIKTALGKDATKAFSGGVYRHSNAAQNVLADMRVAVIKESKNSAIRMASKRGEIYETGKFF
Summary of the method: (§1)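 ole1Δ yeast (W303 pdr1Δ pdr3Δ background) carrying plasmid-borne Ole1, SCD1 or SCD5, grown in uracil-free media; cultures pre-grown in raffinose, seeded at 2× density 0.02 in galactose media with compound. Growth read as OD600 after 24 h at 30° C. for Ole1, 40 h for SCD1/SCD5.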

SCD1 = target: T2, SCD1 (Homo sapiens, UniProt O00767); experiment: Growth inhibition of humanized yeast strain expressing SCD1 as sole desaturase; type: cell-based; details: for IC50 / SCD1 % Max Inhibition: humanized yeast strain expressing SCD1; for half-maximal inhibitory concentration (IC50): SCD1 humanized strain, FIG. 6
T2 construct: host or cells: S. cerevisiae ole1Δ strain (W303 pdr1Δ pdr3Δ background), plasmid pRS316 with TDH3 promoter and CYC1 terminator
T2 sequence (O00767 1-359): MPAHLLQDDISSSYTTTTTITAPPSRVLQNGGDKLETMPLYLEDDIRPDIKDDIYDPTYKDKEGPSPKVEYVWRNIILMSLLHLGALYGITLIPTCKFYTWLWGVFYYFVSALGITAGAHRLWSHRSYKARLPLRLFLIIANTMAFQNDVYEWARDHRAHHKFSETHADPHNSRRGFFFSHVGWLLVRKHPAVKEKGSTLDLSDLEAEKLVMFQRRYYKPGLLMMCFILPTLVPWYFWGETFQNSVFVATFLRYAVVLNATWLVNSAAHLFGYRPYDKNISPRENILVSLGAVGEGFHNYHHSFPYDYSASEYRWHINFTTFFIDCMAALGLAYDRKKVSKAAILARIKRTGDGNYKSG
Summary of the method: as §1

SCD5 = target: T3, SCD5 (Homo sapiens, UniProt Q86SK9); experiment: Growth inhibition of humanized yeast strain expressing SCD5 as sole desaturase; type: cell-based; details: for IC50 / SCD5 % Max Inhibition: humanized yeast strain expressing SCD5; for half-maximal inhibitory concentration (IC50): SCD5 humanized strain, FIG. 6
T3 construct: host or cells: S. cerevisiae ole1Δ strain (W303 pdr1Δ pdr3Δ background), plasmid pRS316 with TDH3 promoter and CYC1 terminator
T3 sequence (Q86SK9 1-330): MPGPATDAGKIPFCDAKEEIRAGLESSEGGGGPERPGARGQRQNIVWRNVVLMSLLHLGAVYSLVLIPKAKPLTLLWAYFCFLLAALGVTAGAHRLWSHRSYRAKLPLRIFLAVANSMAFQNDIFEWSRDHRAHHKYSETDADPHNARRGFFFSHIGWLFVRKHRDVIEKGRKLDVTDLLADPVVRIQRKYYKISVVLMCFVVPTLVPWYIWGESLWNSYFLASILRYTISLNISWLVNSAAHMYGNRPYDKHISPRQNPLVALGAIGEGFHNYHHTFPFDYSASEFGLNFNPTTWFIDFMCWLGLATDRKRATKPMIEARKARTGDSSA
Summary of the method: as §1

[1] = test system: yeast strains expressing the human α-synuclein; experiment: Yeast α-synuclein toxicity rescue assay (OD600 growth); details: 40 h; for EC50: read-out: α-Syn EC50; for Emax: read-out: α-Syn Emax

| Structure (SMILES) | IC50 (Ole1) [µM] | OLE1 % Max Inhibition (Ole1) | IC50 (SCD1) [µM] | SCD1 % Max Inhibition (SCD1) | IC50 (SCD5) [µM] | SCD5 % Max Inhibition (SCD5) [%] | EC50 [1] [µM] | Emax [1] [%] | growth of yeast expressing OLE1 in presence of inhibitor (Ole1) | half-maximal inhibitory concentration (IC50) (SCD1) | half-maximal inhibitory concentration (IC50) (SCD5) |
| --- | --- | --- | --- | --- | --- | --- | --- | --- | --- | --- | --- |
| COc1ccc(-c2noc(C3CCN(C(=O)C(C)(C)NC(=O)c4ccccc4)CC3)n2)cc1OC [Compound 29] | > 45 | 91.00% | > 45 | 69.52% | > 45 | 74.10 | 13.9 | 38 | – | – | – |
| COc1ccc(-c2noc(C3CCN(CCNC(=O)c4ccccc4)CC3)n2)cc1OC [Compound 32] | > 45 | 108.22% | > 45 | 84.16% | > 45 | 80.17 | 9.88 | 41 | – | – | – |
| COc1ccc(-c2nnc(C3CCN(C(=O)CNC(=O)c4ccccc4)CC3)o2)cc1OC [Compound 39] | > 45 | 110.89% | > 45 | 77.01% | > 45 | 79.10 | 18.1 | 216 | – | – | – |
| Cc1nn(C)c2cc(-c3noc(C4CCN(C(=O)CNC(=O)c5ccccc5)CC4)n3)ccc12 [Compound 40] | > 45 | 1.26% and 0.80% and 4.9% | > 45 | 41.70% and 47.19% and 57.7% | > 45 | – | 0.086 | 443 | – | – | – |
| COc1ccc(-c2noc(C3CCN(C(=O)CNC(C)=O)CC3)n2)cc1OC [Compound 46] | > 45 | 87.95% | > 45 | 70.27% | > 45 | 72.35 | 10.9 | 35 | – | – | – |
| COc1ccc(-c2noc(C3CCN(C(=O)CNC(=O)C(C)C)CC3)n2)cc1OC [Compound 47] | > 45 | 109.20% | > 45 | 73.30% | > 45 | 74.25 | 16.5 | 88 | – | – | – |
| COc1ccccc1-c1noc(C2CCN(C(=O)CNC(=O)c3ccc(C)c(C)c3)CC2)n1 [Compound 58] | > 45 | 92.35% | > 45 | 101.47% | > 45 | 66.93 | 7.94 | 23 | – | – | – |
| Cc1nn(C)c2ccc(-c3noc(C4CCN(C(=O)CNC(=O)c5ccccc5)CC4)n3)cc12 [Compound 95] | > 45 | – | 39.2 | – | > 45 | – | 0.091 | 827 | – | – | – |
| O=C(C1CC(=O)N(c2cccc(Cl)c2)C1)N1CCC(c2nc(N3CC4(COC4)C3)no2)CC1 (stereo not drawn) [Compound 339] | > 45 | 85.7% | > 45 | 56.1% | > 45 | 75.4 | – | – | – | – | – |
| O=C(C1CC(=O)N(c2cccc(Cl)c2)C1)N1CCC(c2nc(-c3cnn(C4COC4)c3)no2)CC1 (stereo not drawn) [Compound 340] | > 45 | 88.9% | > 45 | 55.0% | > 45 | 65.9 | – | – | – | – | – |
| Cc1nn(C)c2cc(-c3nc([C@@H]4C[C@H]5CC[C@@H](C4)N5C(=O)OC(C)(C)C)no3)ccc12 [Compound 341] | > 45 | 91.7% | > 45 | 45.2% | > 45 | 45.6 | – | – | – | – | – |
| CCn1nc2cc(-c3noc(C4CCN(C(=O)OC(C)(C)C)CC4)n3)ccc2c1C [Compound 342] | > 45 | 80.9% | > 45 | 75.9% | > 45 | 43.5 | – | – | – | – | – |
| Cc1nn(C(C)C)c2cc(-c3noc(C4CCN(C(=O)OC(C)(C)C)CC4)n3)ccc12 [Compound 343] | > 45 | 84.7% | – | 59.1% | > 45 | 23.2 | – | – | – | – | – |
| COc1ccc(-c2noc(CCNC(=O)CNC(=O)c3ccccc3)n2)cc1OC [Compound 484] | > 45 | 92.09% | – | 75.84% | > 45 | 81.46 | – | – | – | – | – |
| O=C(CNC(=O)c1ccccc1)NCCc1nc(-c2ccccc2)no1 [Compound 485] | > 45 | 75.19% | – | 62.60% | 30 | 65.42 | – | – | – | – | – |
| COc1ccc(-c2noc(CCNC(=O)COc3cc(O)c4c(c3)OC(C)(C)CC4=O)n2)cc1OC [Compound 486] | > 45 | 103.51% | – | 76.95% | > 45 | 72.76 | – | – | – | – | – |
| CC1(C)CC(=O)c2c(O)cc(OCC(=O)NCCc3nc(-c4ccccc4)no3)cc2O1 [Compound 487] | > 45 | 103.20% | – | 83.76% | 40.2 | 70.73 | – | – | – | – | – |
| COc1ccc(-c2noc(C3CCNCC3)n2)cc1OC [Compound 488] | > 45 | 90.53% | – | 75.87% | > 45 | 72.82 | – | – | – | – | – |
| COc1cccc(-c2noc(C3CC(=O)N(c4ccc(C)c(C)c4)C3)n2)c1 (stereo not drawn) [Compound 489] | > 45 | 94.30% | – | 68.84% | 41.1 | 61.11 | – | – | – | – | – |
| COc1cccc(-c2noc(C3CC(=O)N(c4ccc(C)c(C)c4)C3)n2)c1 (stereo not drawn) [Compound 490] | > 45 | 96.38% | 38.8 | 63.84% | 35.1 | 50.39 | – | – | – | – | – |
| CCN1C(=O)COc2ccc(-c3noc(C4(c5ccc(OC)cc5)CC4)n3)cc21 [Compound 491] | > 45 | 107.15% | – | 118.81% | > 45 | 83.61 | – | – | – | – | – |
| CCN(Cc1nc(-c2ccc(OC)c(OC)c2)no1)C(=O)Cc1ccccc1 [Compound 492] | > 45 | 106.45% | – | 83.92% | > 45 | 75.64 | – | – | – | – | – |
| CCNCc1nc(-c2ccc3c(c2)N(CC)C(=O)CO3)no1 [Compound 493] | > 45 | 91.16% | – | 68.84% | 30.2 | 60.28 | – | – | – | – | – |
| CCN(Cc1nc(-c2ccc3c(c2)N(CC)C(=O)CO3)no1)C(=O)Cc1cccc2ccccc12 [Compound 494] | > 45 | 92.28% | – | 79.67% | > 45 | 73.76 | – | – | – | – | – |
| CNC(=O)c1cccc(NC(=O)N2CCC(Oc3ccccc3Cl)CC2)c1 [Compound A939572, reference compound] | – | – | – | – | – | – | – | – | resistant | low nanomolar | low nanomolar |
| Cc1nnc(-c2ccc(N3CCC(Oc4ccccc4C(F)(F)F)CC3)nn2)s1 [MF-438, reference compound] | – | – | – | – | – | – | – | – | resistant | low nanomolar | low nanomolar |
| CCOc1ccc(-c2noc(C3CCN(C(=O)CNC(=O)c4ccccc4)CC3)n2)cc1Cl [compound 87] | – | – | – | – | – | – | 1.93 | 579 | – | – | – |
